Test results: ChEMBL document CHEMBL4400531, “Structure-Based Design of N-(5-Phenylthiazol-2-yl)acrylamides as Novel and Potent Glutathione S-Transferase Omega 1 Inhibitors” (J Med Chem, 2019)

Tests used:
HCT-116 = assay: cells; conditions: Homo sapiens, HCT-116, 72 h
Description: Antiproliferative activity against human HCT116 cells after 72 hrs by MTT assay

HT-29 = assay: cells; conditions: Homo sapiens, HT-29, 72 h
[1] = target: T1, Glutathione S-transferase omega-1 (Homo sapiens, UniProt P78417); assay: Inhibition of CMFDA binding to human N-terminal 6x-His-tagged GSTO1-1 preincubated for 30 mins followed by CMFDA addition and measured after 30 mins by in-gel fluorescence binding assay
T1 sequence (P78417 whole entry): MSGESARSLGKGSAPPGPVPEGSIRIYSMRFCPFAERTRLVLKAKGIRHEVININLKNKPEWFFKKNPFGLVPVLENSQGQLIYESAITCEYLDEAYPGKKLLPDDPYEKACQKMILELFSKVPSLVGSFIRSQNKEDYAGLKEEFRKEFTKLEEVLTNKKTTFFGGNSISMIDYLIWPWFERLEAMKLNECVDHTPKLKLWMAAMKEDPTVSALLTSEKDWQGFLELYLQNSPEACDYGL

[2] = Metabolic stability in human liver microsomes at 1 uM in presence of NADPH incubated for 30 mins by LC-MS/MS analysis; type: ADME, Microsome; conditions: read-out: Stability
[3] = Metabolic stability in mouse liver microsomes at 1 uM in presence of NADPH incubated for 30 mins by LC-MS/MS analysis; type: ADME, Microsome; conditions: read-out: Stability
[4] = Metabolic stability in human liver microsomes at 1 uM in presence of NADPH incubated for 0 mins by LC-MS/MS analysis; type: ADME, Microsome; conditions: read-out: Stability
[5] = Half life in mouse liver microsomes at 1 uM in presence of NADPH by LC-MS/MS analysis; type: ADME, Microsome
[6] = Metabolic stability in mouse liver microsomes at 1 uM in presence of NADPH incubated for 45 mins by LC-MS/MS analysis; type: ADME, Microsome; conditions: read-out: Stability
[7] = Half life in human liver microsomes at 1 uM in presence of NADPH by LC-MS/MS analysis; type: ADME, Microsome
[8] = Metabolic stability in human liver microsomes at 1 uM in presence of NADPH incubated for 45 mins by LC-MS/MS analysis; type: ADME, Microsome; conditions: read-out: Stability
[9] = Metabolic stability in human liver microsomes at 1 uM in presence of NADPH incubated for 10 mins by LC-MS/MS analysis; type: ADME, Microsome; conditions: read-out: Stability
[10] = Metabolic stability in mouse liver microsomes at 1 uM in presence of NADPH incubated for 10 mins by LC-MS/MS analysis; type: ADME, Microsome; conditions: read-out: Stability
[11] = Metabolic stability in mouse liver microsomes at 1 uM in presence of NADPH incubated for 60 mins by LC-MS/MS analysis; type: ADME, Microsome; conditions: read-out: Stability
[12] = Metabolic stability in human liver microsomes at 1 uM in presence of NADPH incubated for 60 mins by LC-MS/MS analysis; type: ADME, Microsome; conditions: read-out: Stability
[13] = Metabolic stability in mouse liver microsomes at 1 uM in presence of NADPH incubated for 5 mins by LC-MS/MS analysis; type: ADME, Microsome; conditions: read-out: Stability
[14] = Metabolic stability in mouse liver microsomes at 1 uM in presence of NADPH incubated for 15 mins by LC-MS/MS analysis; type: ADME, Microsome; conditions: read-out: Stability
[15] = Metabolic stability in mouse liver microsomes at 1 uM in presence of NADPH incubated for 0 mins by LC-MS/MS analysis; type: ADME, Microsome; conditions: read-out: Stability
[16] = Metabolic stability in human liver microsomes at 1 uM in presence of NADPH incubated for 15 mins by LC-MS/MS analysis; type: ADME, Microsome; conditions: read-out: Stability
[17] = Metabolic stability in human liver microsomes at 1 uM in presence of NADPH incubated for 5 mins by LC-MS/MS analysis; type: ADME, Microsome; conditions: read-out: Stability
[18] = Stability of the compound in 20% acetonitrile/PBS buffer at room temperature by LC-MS/MS analysis; type: physicochemical

Compound	IC50 (HCT-116) [µM]	IC50 (HT-29) [µM]	IC50 [1] [µM]	further results
C=CC(=O)Nc1cnn(-c2ccccc2)c1	> 30	> 30	> 10	–
C=CC(=O)Nc1nc(-c2ccc(O)cc2)cs1	7.1 to 12.5	6.1 to 13.5	> 10	–
C=CC(=O)N(Cc1cc(C)no1)c1nc(-c2ccccc2O)cs1	–	–	–	remaining at 0.5 h, 1 µM [2]: 3.7%; remaining at 0.5 h, 1 µM [3]: 8%; remaining at 0 h, 1 µM [4]: 100%; t1/2 [5]: 1.81 min; remaining at 0.75 h, 1 µM [6]: 4%; t1/2 [7]: 1.89 min; remaining at 0.75 h, 1 µM [8]: 3.7%; remaining at 10 min, 1 µM [9]: 7.41%; remaining at 10 min, 1 µM [10]: 12%; remaining at 1 h, 1 µM [11]: 4%; remaining at 1 h, 1 µM [12]: 3.7%; remaining at 5 min, 1 µM [13]: 16%; remaining at […], 1 µM [14]: 12%; remaining at 0 h, 1 µM [15]: 100%; remaining at […], 1 µM [16]: 3.7%; remaining at 5 min, 1 µM [17]: 14.8%; Stability [18]: Stable
C=CC(=O)N1CCC(Cc2ccccc2)CC1	> 30	> 30	> 10	–
C=CC(=O)N1CCC(c2ccccc2)CC1	> 30	> 30	> 10	–
C=CC(=O)Nc1nc(-c2ccc(Cl)cc2)cs1	–	–	–	t1/2 [5]: 3.21 min; t1/2 [7]: 9.52 min; Stability [18]: Stable

More lines, main results first:

IC50 (HCT-116) [µM]	IC50 (HT-29) [µM]	IC50 [1] [µM]	Compound	further results
> 30	> 30	> 10	C=CC(=O)Nc1nc(-c2ccccc2OC)cs1	–
> 30	> 30	> 10	COC(=O)/C=C/CNc1ccc(Cl)c(S(=O)(=O)N(C)C)c1	–
> 30	> 30	> 10	C=CC(=O)Nc1cnn(Cc2ccccc2)c1	–
